Laboratory results published in patent US20260199316A1, “SOLID DISPERSION, PREPARATION METHOD THEREFOR, AND USE THEREOF” (HANGZHOU GLUBIO PHARMACEUTICAL CO., LTD, priority 2022, published 2026).
≈ marks a conversion by molar mass, not a printed value.

Legend:
[1] = Four-week solid stability study of API+HPC SSL solid dispersions; assay type: physicochemical
Experimental: All solid dispersions with formulation of API+HPC SSL were stored at 25° C./60% RH (open) and 40° C./75% RH (sealed). After one week and four weeks (1 w and 4 w), the sample appearance was visually observed, the crystal form change was tested by XRPD, and the sample purity was analyzed by HPLC. The results are shown in Tables 11 to 12 and FIGS. 37 to 38.

[2] = Solubility of rapid solvent evaporation products in FaSSIF; assay type: physicochemical
Experimental: About 10 mg of the API control of the compound of formula A and 40 mg of the polymer carrier were transferred to 1 mL of DCM:EtOH=9:1 (v/v) to prepare a solution with 20% drug loading. The resulting clear solution was rapidly evaporated at 80° C. until there was no liquid to prepare a solid dispersion. The API control of the compound of formula A was also treated separately in the same manner.

[3] = One-week solid stability study of solid dispersions; assay type: physicochemical
Experimental: According to Table 6, three solid dispersions, namely, formulation of API+Soluplus, formulation of API+PVP VA64, and formulation of API+HPC SSL, were stored at 25° C./60% RH (open) and 40° C./75% RH (open) for one week, the appearance of the sample was visually observed and the purity of the samples was analyzed by HPLC.
Therefore, the storage of solid dispersions should avoid exposure to high temperature and high humidity conditions to prevent chemical degradation.

[4] = Redispersion solubility test of solid dispersions (SGF, then SGF + 2 times volume FaSSIF); assay type: physicochemical; conditions: Concentration 1 mg/mL
Experimental: […] After stirring at 37° C. for 0.25 h and 0.5 h at 500 rpm, about 200 μL of the suspension was centrifuged at 14,000 rpm for 5 min, and the supernatant was diluted by 6 times with diluent for HPLC analysis. After sampling at 0.5 h, 2 times the volume of SGF of FaSSIF was immediately added to the suspension and the mixture was stirred for another 0.25 h, 0.5 h and 1.5 h, and then sampled for HPLC analysis and pH testing.

[5] = In vivo pharmacokinetic study of solid dispersions; design: species or system Sprague Dawley (SD) rats; conditions: male SD rats, intragastric 300 mg/kg (as compound of formula A), plasma
Experimental: According to Table 16, three solid dispersions, namely, formulation of API+Soluplus, formulation of API+PVP VA64 and formulation of API+HPC SSL, were selected to conduct in vivo pharmacokinetic tests with the corresponding amorphous form of API to study the pharmacokinetic characteristics of solid dispersions with different formulations in animals.
Method: solid dispersions with different formulations were evaluated with the pharmacokinetic characteristics of male Sprague Dawley (SD) rats after intragastric administration.
Materials: SD Rats (Male, 200-250 g, 6-8 Weeks Old, Zhejiang Weitong Lihua).
Steps: the solid dispersion with the formulation of Table 16 was tested by intragastric administration of 300 mg/kg (dosage calculated according to the compound of formula A) to SD rats, and the solvent was 25 mM citrate buffer pH3 containing 5% Tween 80. The animals were free to eat and drink water. Blood was collected from the jugular vein 15 min (0.25 h), 30 min (0.5 h), 60 min (1 h), 2 h, 4 h, 6 h, 8 h and 24 h after administration. Whole blood was collected in an anticoagulant tube containing EDTA-K2, and after thorough mixing, it was centrifuged at 4° C. and 4000 g for 5 minutes to separate plasma. Plasma samples were stored at −75±15° C. until the blood concentration of the compound of formula A was determined by LC-MS/MS. The relevant pharmacokinetic parameters were calculated using the non-compartmental model and linear/log trapezoidal method of Phoenix WinNonlin 6.1.

O=C1CC[C@H](N2Cc3cc(C(=O)N[C@H](c4ccc(Cl)cn4)C4CCC4)ccc3C2=O)C(=O)N1 [API control, N—((S)-(5-chloropyridin-2-yl)(cyclobutyl)methyl)-2-((S)-2,6-dioxopiperidin-3-yl)-1-oxoisoindoline-5-carboxamide]
Contents ([1]; 25° C./60% RH open, 1 w): 96.84%
Impurities ([1]; 25° C./60% RH open, 1 w): 0.81%
RRT 0.92 ([1]; 25° C./60% RH open, 1 w): 0.05%
RRT 0.93 ([1]; 25° C./60% RH open, 1 w): 0.10%
RRT 0.95 ([1]; 25° C./60% RH open, 1 w): 0.09%
RRT 0.96 ([1]; 25° C./60% RH open, 1 w): 0.14%
RRT 1.00 ([1]; 25° C./60% RH open, 1 w): 99.20%
RRT 1.10 ([1]; 25° C./60% RH open, 1 w): 0.32%
RRT 1.17 ([1]; 25° C./60% RH open, 1 w): 0.10%
Contents ([1]; 25° C./60% RH open, 4 w): 101.1%
Impurities ([1]; 25° C./60% RH open, 4 w): 0.70%
RRT 0.92 ([1]; 25° C./60% RH open, 4 w): <LOQ
RRT 0.93 ([1]; 25° C./60% RH open, 4 w): 0.07%
RRT 0.95 ([1]; 25° C./60% RH open, 4 w): 0.09%
RRT 0.96 ([1]; 25° C./60% RH open, 4 w): 0.14%
RRT 1.00 ([1]; 25° C./60% RH open, 4 w): 99.30%
RRT 1.10 ([1]; 25° C./60% RH open, 4 w): 0.32%
RRT 1.17 ([1]; 25° C./60% RH open, 4 w): 0.09%
Contents ([1]; 40° C./75% RH sealed, 1 w): 97.46%
Impurities ([1]; 40° C./75% RH sealed, 1 w): 0.75%
RRT 0.92 ([1]; 40° C./75% RH sealed, 1 w): 0.03%
RRT 0.93 ([1]; 40° C./75% RH sealed, 1 w): 0.06%
RRT 0.95 ([1]; 40° C./75% RH sealed, 1 w): 0.09%
RRT 0.96 ([1]; 40° C./75% RH sealed, 1 w): 0.15%
RRT 1.00 ([1]; 40° C./75% RH sealed, 1 w): 99.25%
RRT 1.10 ([1]; 40° C./75% RH sealed, 1 w): 0.32%
RRT 1.17 ([1]; 40° C./75% RH sealed, 1 w): 0.09%
Contents ([1]; 40° C./75% RH sealed, 4 w): 101.2%
Impurities ([1]; 40° C./75% RH sealed, 4 w): 0.70%
RRT 0.92 ([1]; 40° C./75% RH sealed, 4 w): <LOQ
RRT 0.93 ([1]; 40° C./75% RH sealed, 4 w): 0.06%
RRT 0.95 ([1]; 40° C./75% RH sealed, 4 w): 0.09%
RRT 0.96 ([1]; 40° C./75% RH sealed, 4 w): 0.14%
RRT 1.00 ([1]; 40° C./75% RH sealed, 4 w): 99.30%
RRT 1.10 ([1]; 40° C./75% RH sealed, 4 w): 0.33%
RRT 1.17 ([1]; 40° C./75% RH sealed, 4 w): 0.09%
Impurities ([1]; Initial): 0.78%
RRT 0.92 ([1]; Initial): 0.05%
RRT 0.93 ([1]; Initial): 0.10%
RRT 0.95 ([1]; Initial): 0.09%
RRT 0.96 ([1]; Initial): 0.15%
RRT 1.00 ([1]; Initial): 99.22%
RRT 1.10 ([1]; Initial): 0.31%
RRT 1.17 ([1]; Initial): 0.09%
solubility ([2]; 0.25 h): 470 µg/mL (≈ 1010 µM)
solubility ([2]; 0.5 h): 460 µg/mL (≈ 985 µM)
solubility ([2]; 0.75 h): 490 µg/mL (≈ 1050 µM)
solubility ([2]; 1 h): 510 µg/mL (≈ 1090 µM)
solubility ([2]; 2 h): 440 µg/mL (≈ 942 µM)
Appearance ([3]; 25° C./60% RH open, one week): White powder
Contents ([3]; 25° C./60% RH open, one week): 97.26%
Impurities ([3]; 25° C./60% RH open, one week): 0.72%
RRT 0.54 ([3]; 25° C./60% RH open, one week): 0.10%
RRT 0.92 ([3]; 25° C./60% RH open, one week): <LOQ
RRT 0.93 ([3]; 25° C./60% RH open, one week): 0.10%
RRT 0.95 ([3]; 25° C./60% RH open, one week): 0.09%
RRT 0.96 ([3]; 25° C./60% RH open, one week): 0.10%
RRT 1.00 ([3]; 25° C./60% RH open, one week): 99.29%
RRT 1.11 ([3]; 25° C./60% RH open, one week): 0.09%
RRT 1.18 ([3]; 25° C./60% RH open, one week): 0.17%
RRT 1.24 ([3]; 25° C./60% RH open, one week): 0.06%
Appearance ([3]; 40° C./75% RH open, one week): Slight agglomeration
Contents ([3]; 40° C./75% RH open, one week): 96.79%
Impurities ([3]; 40° C./75% RH open, one week): 1.05%
RRT 0.54 ([3]; 40° C./75% RH open, one week): 0.13%
RRT 0.92 ([3]; 40° C./75% RH open, one week): 0.12%
RRT 0.93 ([3]; 40° C./75% RH open, one week): 0.26%
RRT 0.95 ([3]; 40° C./75% RH open, one week): 0.09%
RRT 0.96 ([3]; 40° C./75% RH open, one week): 0.13%
RRT 1.00 ([3]; 40° C./75% RH open, one week): 98.95%
RRT 1.11 ([3]; 40° C./75% RH open, one week): 0.11%
RRT 1.18 ([3]; 40° C./75% RH open, one week): 0.14%
RRT 1.24 ([3]; 40° C./75% RH open, one week): 0.06%
Appearance ([3]; Initial): White powder
Impurities ([3]; Initial): 0.67%
RRT 0.54 ([3]; Initial): 0.11%
RRT 0.92 ([3]; Initial): <LOQ
RRT 0.93 ([3]; Initial): 0.09%
RRT 0.95 ([3]; Initial): 0.09%
RRT 0.96 ([3]; Initial): 0.10%
RRT 1.00 ([3]; Initial): 99.34%
RRT 1.11 ([3]; Initial): 0.07%
RRT 1.18 ([3]; Initial): 0.15%
RRT 1.24 ([3]; Initial): 0.05%

O=C1CC[C@H](N2Cc3cc(C(=O)N[C@H](c4ccc(Cl)cn4)C4CCC4)ccc3C2=O)C(=O)N1 [Amorphous form of API, N—((S)-(5-chloropyridin-2-yl)(cyclobutyl)methyl)-2-((S)-2,6-dioxopiperidin-3-yl)-1-oxoisoindoline-5-carboxamide]
End point pH [4]: 6.55
solubility at 0.75 h ([4]; SGF + 2 times volume FaSSIF, fassif, thermodynamic from solid, 37° C., read-out: Redispersion solubility, Step 2: SGF + 2 times volume FaSSIF (0.75 hr)): 460 µg/mL
solubility at 1 h ([4]; SGF + 2 times volume FaSSIF, fassif, thermodynamic from solid, 37° C., read-out: Redispersion solubility, Step 2: SGF + 2 times volume FaSSIF (1.0 hr)): 440 µg/mL
solubility at 2 h ([4]; SGF + 2 times volume FaSSIF, pH 6.55, fassif, thermodynamic from solid, 37° C., read-out: Redispersion solubility, Step 2: SGF + 2 times volume FaSSIF (2.0 hr)): 270 µg/mL
solubility at 0.25 h ([4]; simulated gastric fluid (SGF), simulated gastric fluid, thermodynamic from solid, 37° C., read-out: Redispersion solubility, Step 1: SGF (0.25 hr)): 960 µg/mL
solubility at 0.5 h ([4]; simulated gastric fluid (SGF), simulated gastric fluid, thermodynamic from solid, 37° C., read-out: Redispersion solubility, Step 1: SGF (0.5 hr)): 980 µg/mL
solubility at 0.25 h ([2]; fassif, thermodynamic from solid, 0.25 h): 470 µg/mL (≈ 1010 µM)
solubility at 0.5 h ([2]; fassif, thermodynamic from solid, 0.5 h): 490 µg/mL (≈ 1050 µM)
solubility at 0.75 h ([2]; fassif, thermodynamic from solid, 0.75 h): 600 µg/mL (≈ 1290 µM)
solubility at 1 h ([2]; fassif, thermodynamic from solid, 1 h): 570 µg/mL (≈ 1220 µM)
solubility at 2 h ([2]; fassif, thermodynamic from solid, 2 h): 450 µg/mL (≈ 964 µM)
AUC(0-inf) ([5]; Sprague Dawley, rat, po): 112 µg·h/mL
AUC(0-t) ([5]; Sprague Dawley, rat, po): 111 µg·h/mL
Cmax ([5]; Sprague Dawley, rat, po): 18700 ng/mL
Tmax ([5]; Sprague Dawley, rat, po): 1 h
half-life ([5]; Sprague Dawley, rat, po): 4.06 h
AUClast/D [5]: 369 ng·kg·h/mL/mg
